PubChem BioAssay AID1963967 (Molecular Pharmacology Branch, DTP, NCI, 2024)

System: 855422-203-R-J1-PDC spheroids with HUVEC/MSC, viability
Test: Anticancer human tumor 855422-203-R-J1-PDC patient-derived bladder carcinoma cell line growth inhibition [PI3K]
Conditions: for IC50: curve of first compound; for viability, T/C: stronger effect = lower value
Method in brief: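 Multi-cell spheroids combine tumor cells with HUVEC and human MSCs, treated with targeted agents alone or with inavolisib, alpelisib, duvelisib or copanlisib. Concentrations fall in half-log steps from at or near clinical Cmax, or from 10 microM where Cmax is unknown; viability read-out.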
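Further: agents incubated with spheroids for one week before read-out.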
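Wherever viability, T/C is given: 100% = DMSO vehicle-treated control wells.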

CC(=O)c1c(C)c2cnc(Nc3ccc(N4CCNCC4)cn3)nc2n(C2CCCC2)c1=O + CC(Nc1ncnc2nc[nH]c12)c1cc2cccc(Cl)c2c(=O)n1-c1ccccc1
IC50 (second compound 0.0316 µM): > 100 nM | IC50 (second compound 0.1 µM): > 100 nM | IC50 (second compound 0.316 µM): > 100 nM | IC50 (second compound 1 µM): > 100 nM | IC50 (second compound 3.16 µM): > 100 nM | IC50 (second compound 10 µM): 65.4 nM | viability, T/C (second compound 0.0316 µM, first compound 0.000316 µM): 106% | viability, T/C (second compound 0.0316 µM, first compound 0.001 µM): 95.8% | viability, T/C (second compound 0.0316 µM, first compound 0.00316 µM): 105% | viability, T/C (second compound 0.0316 µM, first compound 0.01 µM): 93.4% | viability, T/C (second compound 0.0316 µM, first compound 0.0316 µM): 100% | viability, T/C (second compound 0.0316 µM, first compound 0.1 µM): 79% | viability, T/C (second compound 0.1 µM, first compound 0.000316 µM): 111% | viability, T/C (second compound 0.1 µM, first compound 0.001 µM): 92.5% | viability, T/C (second compound 0.1 µM, first compound 0.00316 µM): 105% | viability, T/C (second compound 0.1 µM, first compound 0.01 µM): 99.8% | viability, T/C (second compound 0.1 µM, first compound 0.0316 µM): 94.4% | viability, T/C (second compound 0.1 µM, first compound 0.1 µM): 76.2% | viability, T/C (second compound 0.316 µM, first compound 0.000316 µM): 101% | viability, T/C (second compound 0.316 µM, first compound 0.001 µM): 108% | viability, T/C (second compound 0.316 µM, first compound 0.00316 µM): 110% | viability, T/C (second compound 0.316 µM, first compound 0.01 µM): 95.3% | viability, T/C (second compound 0.316 µM, first compound 0.0316 µM): 105% | viability, T/C (second compound 0.316 µM, first compound 0.1 µM): 81.3% | viability, T/C (second compound 1 µM, first compound 0.000316 µM): 91.9% | viability, T/C (second compound 1 µM, first compound 0.001 µM): 102% | viability, T/C (second compound 1 µM, first compound 0.00316 µM): 102% | viability, T/C (second compound 1 µM, first compound 0.01 µM): 101% | viability, T/C (second compound 1 µM, first compound 0.0316 µM): 95.9% | viability, T/C (second compound 1 µM, first compound 0.1 µM): 73.9% | viability, T/C (second compound 3.16 µM, first compound 0.000316 µM): 98.7% | viability, T/C (second compound 3.16 µM, first compound 0.001 µM): 96.4% | viability, T/C (second compound 3.16 µM, first compound 0.00316 µM): 101% | viability, T/C (second compound 3.16 µM, first compound 0.01 µM): 93.2% | viability, T/C (second compound 3.16 µM, first compound 0.0316 µM): 85.4% | viability, T/C (second compound 3.16 µM, first compound 0.1 µM): 54% | viability, T/C (second compound 10 µM, first compound 0.000316 µM): 84.7% | viability, T/C (second compound 10 µM, first compound 0.001 µM): 84.3% | viability, T/C (second compound 10 µM, first compound 0.00316 µM): 80% | viability, T/C (second compound 10 µM, first compound 0.01 µM): 73.9% | viability, T/C (second compound 10 µM, first compound 0.0316 µM): 74.3% | viability, T/C (second compound 10 µM, first compound 0.1 µM): 36.9%
